US20120071401A1, “AMYLIN AGONIST COMPOUNDS FOR ESTROGEN-DEFICIENT MAMMALS” (Amylin Pharamaceuticals, Inc., priority 2009, published 2012)
One block for each molecule: values may come before it.

Experiments:
[1] = human subjects; cited from earlier work
[2] = in vivo; settings: rat, 50 ug/kg/d; for level at 672 h: Plasma amylin
Experimental: Amylin infusion to lean or obese, diabetic ZDF rats. Obese diabetic female ZDF rats (Charles River Laboratories) were maintained on 32% kcal/fat purified diet for approximately 6 weeks, and at 10 weeks of age were sorted into two weight-matched groups. One group was subjected to a bilateral ovariectomy (n=12) or SHAM surgery (n=12). Two weeks post-surgery rats were implanted with a single osmotic minipump (Alzet model 2ML4, Durect Corporation) delivering either vehicle or rat amylin (50 ug/kg/d) to half of each surgical group for 28 days. Lean (mean body weight 226±3 g) ZDF controls (Charles River) maintained on standard laboratory rodent chow (LM-485, 5% kcal/fat; Harlan Teklad) were sorted into weight-matched groups and implanted with a single osmotic minipump (Alzet model 2ML4, Durect Corporation) delivering either vehicle (n=9) or rat amylin (50 ug/kg/d; n=9) for 28 days. For both studies food intake and body weight were monitored weekly, and body composition was assessed at baseline and termination using NMR (Echo Medical Systems). After 28 days rats were euthanized by isoflurane overdose and cardiac blood collected.
Plasma metabolite analyses. Terminal plasma insulin (Crystal Chem Inc., Downer's Grove, Ill.), and leptin, total adiponectin and total ghrelin (Millipore, Billerica, […].) levels were measured using commercially available ELISA. Plasma glucose, triglyceride, and total cholesterol levels were measured using an Olympus bioanalyzer (Olympus America Diagnostics, Center Valley, Pa.). Plasma amylin levels were measured using an internal IEMA.

[3] = DIO rats, leptin dose alone; cited from earlier work

Molecule: CC[C@H](C)[C@H](NC(=O)[C@@H]1CCCN1C(=O)CNC(=O)[C@H](Cc1ccccc1)NC(=O)[C@H](CC(N)=O)NC(=O)[C@H](CC(N)=O)NC(=O)[C@H](CO)NC(=O)[C@H](CO)NC(=O)[C@H](Cc1c[nH]cn1)NC(=O)[C@@H](NC(=O)[C@H](CC(C)C)NC(=O)[C@H](Cc1ccccc1)NC(=O)[C@H](CC(N)=O)NC(=O)[C@H](C)NC(=O)[C@H](CC(C)C)NC(=O)[C@H](CCCNC(=N)N)NC(=O)[C@H](CCC(N)=O)NC(=O)[C@@H](NC(=O)[C@H](C)NC(=O)[C@@H]1CSSC[C@H](NC(=O)[C@@H](N)CCCCN)C(=O)N[C@@H](CC(N)=O)C(=O)N[C@@H]([C@@H](C)O)C(=O)N[C@@H](C)C(=O)N[C@@H]([C@@H](C)O)C(=O)N1)[C@@H](C)O)C(C)C)C(=O)N[C@@H](CC(C)C)C(=O)N1CCC[C@H]1C(=O)N1CCC[C@H]1C(=O)N[C@H](C(=O)N[C@@H](CC(N)=O)C(=O)N[C@H](C(=O)NCC(=O)N[C@@H](CO)C(=O)N[C@@H](CC(N)=O)C(=O)N[C@H](C(=O)N[C@@H](Cc1ccc(O)cc1)C(N)=O)[C@@H](C)O)C(C)C)[C@@H](C)O [pramlintide]
Food intake and body weight [1]: reduced food intake and body weight

level at 672 h ([2]; ZDF (lean controls)): 3.43 ± 0.392 ng/mL
Plasma amylin ([2]; female, ZDF (obese diabetic), 672 h): 3279 ± 430 pg/mL
level at 672 h ([2]; female, ZDF (obese diabetic)): 3.45 ± 0.401 ng/mL
Molecule: CC(C)C[C@H](NC(=O)[C@H](CC(N)=O)NC(=O)[C@H](CC(N)=O)NC(=O)[C@H](CO)NC(=O)[C@H](CO)NC(=O)[C@H](CCCNC(=N)N)NC(=O)[C@@H](NC(=O)[C@H](CC(C)C)NC(=O)[C@H](Cc1ccccc1)NC(=O)[C@H](CC(N)=O)NC(=O)[C@H](C)NC(=O)[C@H](CC(C)C)NC(=O)[C@H](CCCNC(=N)N)NC(=O)[C@H](CCC(N)=O)NC(=O)[C@@H](NC(=O)[C@H](C)NC(=O)[C@@H]1CSSC[C@H](NC(=O)[C@@H](N)CCCCN)C(=O)N[C@@H](CC(N)=O)C(=O)N[C@@H]([C@@H](C)O)C(=O)N[C@@H](C)C(=O)N[C@@H]([C@@H](C)O)C(=O)N1)[C@@H](C)O)C(C)C)C(=O)NCC(=O)N1CCC[C@H]1C(=O)N[C@H](C(=O)N[C@@H](CC(C)C)C(=O)N1CCC[C@H]1C(=O)N1CCC[C@H]1C(=O)N[C@H](C(=O)N[C@@H](CC(N)=O)C(=O)N[C@H](C(=O)NCC(=O)N[C@@H](CO)C(=O)N[C@@H](CC(N)=O)C(=O)N[C@H](C(=O)N[C@@H](Cc1ccc(O)cc1)C(N)=O)[C@@H](C)O)C(C)C)[C@@H](C)O)C(C)C [rat amylin]

B1: leptin (protein, UniProt P50596 22-167, looked up)
Leptin: VPIHKVQDDTKTLIKTIVTRINDISHTQSVSARQRVTGLDFIPGLHPILSLSKMDQTLAVYQQILTSLPSQNVLQIAHDLENLRDLLHLLAFSKSCSLPQTRGLQKPESLDGVLEASLYSTEVVALSRLQGSLQDILQQLDLSPEC
notes: long term signal of adiposity; acts synergistically with amylin in DIO rats
Reducing body weight [3]: ineffective
